Experimental data reported in patent publication US11014888B2, “Crystalline form of alkynyl pyridine prolyl hydroxylase inhibitor and method for preparing same” (JIANGSU HENGRUI MEDICINE CO., LTD., priority 2017, dated 2021).

Legend:
prolyl hydroxylase = conditions: as disclosed in WO2017059623; cited from earlier work
[1] = Chemical stability under different humidity conditions, impurity content by HPLC; format: physicochemical; conditions: for Total impurity content (%): HPLC; for Impurity content level / Change of impurity content under various conditions: conclusion from Table 8; for Change of impurity content under various conditions: humidity 0%, 75%, 92.5% (25° C.), up to 30 days
Protocol: The samples of crystal forms A, B and I were left to stand under different humidity conditions to test their chemical stability. The impurity content was determined by HPLC (HPLC detection conditions: ZORBAX SB-C18 4.6*150 mm 3.5 μm, mobile phase: TFA/methanol/water, detection wavelength: 223 nm).

[2] = XRPD comparison of crystal forms before and after the DVS test; format: physicochemical; conditions: for Crystal form change before and after the DVS test (XRPD): 25° C., water, 50%-95%-0%-95%-50% RH; for Stability / sensitivity to humidity: conclusion from XRPD before and after DVS test
Protocol: XRPD test was carried out on the samples of crystal forms A, B and I after the DVS test, and the XRPD results of each crystal form before and after the DVS test were compared.
DVS instrument parameters:
Maximum step size: 360 minutes

[3] = XRPD after standing at 0% humidity for 10 days; format: physicochemical
Excerpt: The samples of crystal forms A and B were left to stand under the condition of 0% humidity for 10 days, and subjected to XRPD to investigate the stability of the crystal form under the low humidity condition.

[4] = XRPD comparison of crystal forms before and after DSC heating; format: physicochemical
Protocol: XRPD test was carried out on the samples of crystal forms A, B and I after the DSC test.

[5] = Physical stability test (XRPD) of crystal forms under different placement conditions; format: physicochemical; conditions: for Physical stability, conclusion from Table 7: C, D, H changed after one week, A, B, I did not change after one month; for Physical stability (XRPD): 1 week
Protocol: Physical stability test was carried out on the samples of crystal forms A, B, C, D, H and I under different placement conditions. The placement conditions were:
1. 40° C., humidity 75%, open/sealed;
2. 25° C., humidity 60%, open; and […]

[6] = Chemical stability under different placement conditions; format: physicochemical; conditions: 40° C., humidity 75%, open/sealed, 25° C., humidity 60%, or 2-6° C.
[7] = Humidity 92.5% (25° C.), 5 days
[8] = Humidity 92.5% (25° C.), 10 days
[9] = Humidity 92.5% (25° C.), 30 days

| Compound | Total impurity content (%) ([1]; Day 0) | Total impurity content (%) ([1]; Humidity 0% (25° C.), 5 days) | Total impurity content (%) ([1]; Humidity 0% (25° C.), 10 days) | Total impurity content (%) ([1]; Humidity 0% (25° C.), 30 days) | Total impurity content (%) ([1]; Humidity 75% (25° C.), 5 days) | Total impurity content (%) ([1]; Humidity 75% (25° C.), 10 days) | Total impurity content (%) ([1]; Humidity 75% (25° C.), 30 days) | Total impurity content (%) [1, 7] [%] | Total impurity content (%) [1, 8] [%] | Total impurity content (%) [1, 9] [%] | Impurity content level [1] | Change of impurity content under various conditions [1] | Crystal form change before and after the DVS test (XRPD) [2] | Physical stability, conclusion from Table 7 [5] | Physical stability (XRPD) ([5]; 40° C. open (humidity 75%)) | also measured |
| --- | --- | --- | --- | --- | --- | --- | --- | --- | --- | --- | --- | --- | --- | --- | --- | --- |
| O=C(O)CNC(=O)c1ncc(C#CCOc2ccc(Cl)cc2)cc1O [compound of formula (I), 2-(3-hydroxy-5-(3-p-chlorophenoxypropyn-1-yl))picolinamido acetic acid] | – | – | – | – | – | – | – | – | – | – | – | – | – | – | – | Inhibition effect on prolyl hydroxylase (prolyl hydroxylase): excellent inhibition effect |
| O=C(O)CNC(=O)c1ncc(C#CCOc2ccc(Cl)cc2)cc1O [crystal form A, 2-(3-hydroxy-5-(3-p-chlorophenoxypropyn-1-yl))picolinamido acetic acid] | 1.88 | 1.89 | 2.00 | 2.14 | 1.92 | 1.97 | 2.17 | 1.96 | 1.99 | 2.05 | relatively high impurity content | changed significantly | did not change, but the crystallinity thereof decreased | good physical stability | – | Crystal form change under low humidity (XRPD) [3]: changed; Crystal form change after DSC heating (XRPD) ([4]; after heating to 105° C.): changed |
| O=C(O)CNC(=O)c1ncc(C#CCOc2ccc(Cl)cc2)cc1O [crystal form B, 2-(3-hydroxy-5-(3-p-chlorophenoxypropyn-1-yl))picolinamido acetic acid] | 0.95 | 0.97 | 1.03 | 1.09 | 0.94 | 0.98 | 1.06 | 0.98 | 0.98 | 1.02 | low impurity content | substantially did not increase | did not change | good physical stability | – | Stability / sensitivity to humidity [2]: most stable to humidity; Crystal form change under low humidity (XRPD) [3]: did not change; Chemical stability under different placement conditions [6]: excellent chemical stability; Crystal form change after DSC heating (XRPD) ([4]; after heating to 135° C.): did not change |
| O=C(O)CNC(=O)c1ncc(C#CCOc2ccc(Cl)cc2)cc1O [crystal form C, 2-(3-hydroxy-5-(3-p-chlorophenoxypropyn-1-yl))picolinamido acetic acid] | – | – | – | – | – | – | – | – | – | – | – | – | – | poor physical stability | x (x means that the crystal form changed) | Physical stability (XRPD) ([5]; 4° C. sealed): x (x means that the crystal form changed); Physical stability (XRPD) ([5]; 25° C. open (humidity 60%)): x (x means that the crystal form changed); Physical stability (XRPD) ([5]; 40° C. sealed (humidity 75%)): x (x means that the crystal form changed) |
| O=C(O)CNC(=O)c1ncc(C#CCOc2ccc(Cl)cc2)cc1O [crystal form D, 2-(3-hydroxy-5-(3-p-chlorophenoxypropyn-1-yl))picolinamido acetic acid] | – | – | – | – | – | – | – | – | – | – | – | – | – | poor physical stability | x (x means that the crystal form changed) | Physical stability (XRPD) ([5]; 4° C. sealed): x (x means that the crystal form changed); Physical stability (XRPD) ([5]; 25° C. open (humidity 60%)): x (x means that the crystal form changed); Physical stability (XRPD) ([5]; 40° C. sealed (humidity 75%)): x (x means that the crystal form changed) |
| O=C(O)CNC(=O)c1ncc(C#CCOc2ccc(Cl)cc2)cc1O [crystal form H, 2-(3-hydroxy-5-(3-p-chlorophenoxypropyn-1-yl))picolinamido acetic acid] | – | – | – | – | – | – | – | – | – | – | – | – | – | poor physical stability | x (x means that the crystal form changed) | – |
| O=C(O)CNC(=O)c1ncc(C#CCOc2ccc(Cl)cc2)cc1O [crystal form I, 2-(3-hydroxy-5-(3-p-chlorophenoxypropyn-1-yl))picolinamido acetic acid] | 1.56 | 1.57 | 1.58 | 2.06 | 1.72 | 1.78 | 1.88 | 1.90 | 2.24 | 2.22 | relatively high impurity content | changed significantly | changed | good physical stability | – | Stability / sensitivity to humidity [2]: most sensitive to humidity; Crystal form change after DSC heating (XRPD) ([4]; after heating to 105° C.): changed |
